Assay results from US20250019382A1, “NOVEL INHIBITORS OF CYCLIN-DEPENDENT KINASES” (Origenis Gmbh, priority 2021, published 2025).

Molecular target: T1, CDK9/CyclinT1 (Homo sapiens, UniProt P50750)
T1 construct: purchased ProQinase/Reaction Biology, USA #0371-0345-1
Test: CDK9/T1 ADPGlo kinase assay
Assay type: biochemical
Details: CDK9/CyclinT1 6 nM, ATP 10 microM, PDKtide 40 microM, 120 min RT
Protocol: The testing compound was evaluated in 12 concentrations in a 1:3 dilution series, starting from 5microM as the highest concentration.
In a white 384 microplate (Greiner bio-one, Austria #784904,) with 2 microL of 3-fold concentrated CDK9/CyclinT1 (ProQinase/Reaction Biology, USA #0371-0345-1, LOT.: 012), final concentration (f.c.) 6 nM, in 1×kinase buffer, 2 microL of compound (3× fold concentrated in f.c. 1.66% DMSO/H2O) was added and incubated at Room Temperature (RT) for 10 min. Then 2 microL of Substrate/ATP-Mix (3×PDKtide f.c. 40 microM, SignalChem Biotech, Canada via Biozol, Eching, Germany #P10-58, LOT.: L2230-7 and 3×UltraPure ATP f.c. 10 microM (ADP Glo Kinase assay, Promega GmbH, Germany #V9102)) were added, mixed and incubated for 120 min at RT.
After incubation time, 5 microL of ADP Glo reagent (ready to use, ADP Glo Kinase assay, Promega GmbH, Germany #V9102) were added, mixed and incubated for 40 min at RT.
In the last step, 10 microL of ADP Glo Detection reagent (ready to use, ADP Glo Kinase assay, Promega GmbH, Germany #V9102) were added, mixed and incubated for 30 min at RT.
GloMax Discover GM3000 Reader (Promega GmbH, Germany 9700000249) was used for the readout.
The inhibitor concentration was plotted against the luminescence to determine the IC50 using XLFit 5.5 (IDBS, Guildford) to fit to a sigmoidal dose response curve with a variable slope.

T1 sequence (P50750 whole entry): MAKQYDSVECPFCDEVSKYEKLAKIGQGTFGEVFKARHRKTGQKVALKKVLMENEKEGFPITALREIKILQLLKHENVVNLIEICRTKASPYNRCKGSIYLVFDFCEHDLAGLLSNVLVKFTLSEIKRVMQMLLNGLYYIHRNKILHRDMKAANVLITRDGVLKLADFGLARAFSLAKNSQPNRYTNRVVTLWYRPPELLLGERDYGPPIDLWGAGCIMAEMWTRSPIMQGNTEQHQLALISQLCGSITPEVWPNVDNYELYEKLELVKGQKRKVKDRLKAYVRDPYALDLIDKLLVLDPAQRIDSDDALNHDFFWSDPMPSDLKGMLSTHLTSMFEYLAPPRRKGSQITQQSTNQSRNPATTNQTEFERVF
T1 sequence (O60563 whole entry partner): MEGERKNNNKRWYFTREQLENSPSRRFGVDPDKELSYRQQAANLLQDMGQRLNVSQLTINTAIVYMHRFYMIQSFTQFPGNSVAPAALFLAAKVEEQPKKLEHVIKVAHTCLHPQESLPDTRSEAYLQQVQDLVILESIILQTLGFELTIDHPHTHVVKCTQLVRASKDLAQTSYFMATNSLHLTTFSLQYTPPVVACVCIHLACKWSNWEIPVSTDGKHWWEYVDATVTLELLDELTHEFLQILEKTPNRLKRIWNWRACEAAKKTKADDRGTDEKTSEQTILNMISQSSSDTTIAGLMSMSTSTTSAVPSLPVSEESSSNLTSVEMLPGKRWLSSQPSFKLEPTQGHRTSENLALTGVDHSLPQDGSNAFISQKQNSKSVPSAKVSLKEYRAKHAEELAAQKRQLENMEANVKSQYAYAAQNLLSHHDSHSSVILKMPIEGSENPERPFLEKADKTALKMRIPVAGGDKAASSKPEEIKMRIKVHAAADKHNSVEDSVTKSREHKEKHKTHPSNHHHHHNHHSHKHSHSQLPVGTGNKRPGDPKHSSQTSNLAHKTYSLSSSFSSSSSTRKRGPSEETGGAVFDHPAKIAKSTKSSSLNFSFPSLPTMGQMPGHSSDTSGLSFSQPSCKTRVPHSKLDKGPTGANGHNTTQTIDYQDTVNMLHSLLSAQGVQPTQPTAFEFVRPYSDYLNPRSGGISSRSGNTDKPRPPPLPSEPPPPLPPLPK

IC50 [nM] | Compound
< 20 | Fc1cccc(F)c1-c1nc(Nc2cnn(C3CCN(C4CCOCC4)CC3)c2)n2ncc(Cl)c2n1 [Example #92, 8-chloro-2-(2,6-difluorophenyl)-N-(1-(1-(tetrahydro-2H-pyran-4-yl)piperidin-4-yl)-1H-pyrazol-4-yl)pyrazolo[1,5-a][1,3,5]triazin-4-amine]
< 200 | N#Cc1cnn2c(N[C@H]3CC[C@H](N4CCOCC4)CC3)nc(-c3c(F)cccc3F)nc12 [Example #93, 2-(2,6-difluorophenyl)-4-(((1r,4r)-4-morpholinocyclohexyl)amino)pyrazolo[1,5-a][1,3,5]triazine-8-carbonitrile]
< 200 | Fc1cccc(F)c1-c1nc(Nc2cnn(C3CCN(C4CCOCC4)CC3)c2)n2ncc(Br)c2n1 [Example #94, 8-bromo-2-(2,6-difluorophenyl)-N-(1-(1-(tetrahydro-2H-pyran-4-yl)piperidin-4-yl)-1H-pyrazol-4-yl)pyrazolo[1,5-a][1,3,5]triazin-4-amine]
< 20 | Fc1cccc(F)c1-c1nc(N[C@H]2CC[C@H](N3CCOCC3)CC2)n2ncc(Br)c2n1 [Example #95, 8-bromo-2-(2,6-difluorophenyl)-N-((1r,4r)-4-morpholinocyclohexyl)pyrazolo[1,5-a][1,3,5]triazin-4-amine]
< 200 | CN1CCC(N2CCC(n3cc(Nc4nc(-c5c(F)cccc5F)nc5c(Cl)cnn45)cn3)CC2)CC1 [Example #96, 8-chloro-2-(2,6-difluorophenyl)-N-(1-(1′-methyl-[1,4′-bipiperidin]-4-yl)-1H-pyrazol-4-yl)pyrazolo[1,5-a][1,3,5]triazin-4-amine]
< 200 | CC(C)(C)N1CCN(c2ccc(Nc3nc(-c4c(F)cccc4F)nc4c(Cl)cnn34)cc2)CC1 [Example #97, N-(4-(4-(tert-butyl)piperazin-1-yl)phenyl)-8-chloro-2-(2,6-difluorophenyl)pyrazolo[1,5-a][1,3,5]triazin-4-amine]
< 1000 | O=C(c1ccc(Nc2nc(-c3c(F)cccc3F)nc3c(Cl)cnn23)cc1)N1CCOCC1 [Example #98, (4-((8-chloro-2-(2,6-difluorophenyl)pyrazolo[1,5-a][1,3,5]triazin-4-yl)amino)phenyl)(morpholino)methanone]
< 200 | Fc1cccc(F)c1-c1nc(Nc2cnn(C3CCN(C4CC4)CC3)c2)n2ncc(Cl)c2n1 [Example #99, 8-chloro-N-(1-(1-cyclopropylpiperidin-4-yl)-1H-pyrazol-4-yl)-2-(2,6-difluorophenyl)pyrazolo[1,5-a][1,3,5]triazin-4-amine]
< 20 | Fc1cccc(F)c1-c1nc(Nc2cnn(C3CCN(CC4CC4)CC3)c2)n2ncc(Cl)c2n1 [Example #100, 8-chloro-N-(1-(1-(cyclopropylmethyl)piperidin-4-yl)-1H-pyrazol-4-yl)-2-(2,6-difluorophenyl)pyrazolo[1,5-a][1,3,5]triazin-4-amine]
< 20 | Fc1cccc(Cl)c1-c1nc(Nc2cnn(C3CCN(C4CCOCC4)CC3)c2)n2ncc(Cl)c2n1 [Example #101, 8-chloro-2-(2-chloro-6-fluorophenyl)-N-(1-(1-(tetrahydro-2H-pyran-4-yl)piperidin-4-yl)-1H-pyrazol-4-yl)pyrazolo[1,5-a][1,3,5]triazin-4-amine]
< 200 | Clc1cccc(Cl)c1-c1nc(Nc2cnn(C3CCN(C4CCOCC4)CC3)c2)n2ncc(Cl)c2n1 [Example #102, 8-chloro-2-(2,6-dichlorophenyl)-N-(1-(1-(tetrahydro-2H-pyran-4-yl)piperidin-4-yl)-1H-pyrazol-4-yl)pyrazolo[1,5-a][1,3,5]triazin-4-amine]
< 20 | Fc1cccc(F)c1-c1nc(Nc2cnn(C3CCNCC3)c2)n2ncc(Cl)c2n1 [Example #103, 8-chloro-2-(2,6-difluorophenyl)-N-(1-(piperidin-4-yl)-1H-pyrazol-4-yl)pyrazolo[1,5-a][1,3,5]triazin-4-amine]
< 20 | Cn1cc(Nc2nc(-c3c(F)cccc3F)nc3c(Cl)cnn23)cn1 [Example #104, 8-chloro-2-(2,6-difluorophenyl)-N-(1-methyl-1H-pyrazol-4-yl)pyrazolo[1,5-a][1,3,5]triazin-4-amine]
< 20 | CCN(CCO)CCCC(C)Nc1nc(-c2c(F)cccc2F)nc2c(Cl)cnn12 (centres unmarked) [Example #107, 2-((4-((8-chloro-2-(2,6-difluorophenyl)pyrazolo[1,5-a][1,3,5]triazin-4-yl)amino)pentyl)(ethyl)amino)ethan-1-ol]
< 200 | Fc1cccc(F)c1-c1nc(NC2CCC(N3CCOCC3)CC2)n2ncc(C(F)(F)F)c2n1 (centres unmarked) [Example #111, 2-(2,6-difluorophenyl)-N-((1r,4r)-4-morpholinocyclohexyl)-8-(trifluoromethyl)pyrazolo[1,5-a][1,3,5]triazin-4-amine]
< 200 | N[C@H]1CC[C@@H](Nc2nc(-c3c(F)cccc3F)nc3c(Cl)cnn23)CC1 [Example #112, (1s,4s)-N1-(8-chloro-2-(2,6-difluorophenyl)pyrazolo[1,5-a][1,3,5]triazin-4-yl)cyclohexane-1,4-diamine]
< 1000 | Fc1cccc(F)c1-c1nc(N[C@H]2CC[C@@H](N3CCCCC3)CC2)n2ncc(Cl)c2n1 [Example #113, 8-chloro-2-(2,6-difluorophenyl)-N-((1s,4s)-4-(piperidin-1-yl)cyclohexyl)pyrazolo[1,5-a][1,3,5]triazin-4-amine]
< 1000 | Cn1cc(Nc2nc(-c3c(F)cccc3F)nc3c(C(F)(F)F)cnn23)cn1 [Example #115, 2-(2,6-difluorophenyl)-N-(1-methyl-1H-pyrazol-4-yl)-8-(trifluoromethyl)pyrazolo[1,5-a][1,3,5]triazin-4-amine]
< 20 | N[C@@H]1CC[C@@H](Nc2nc(-c3c(F)cccc3F)nc3c(Cl)cnn23)C1 [Example #116, (1R,3R)-N1-(8-chloro-2-(2,6-difluorophenyl)pyrazolo[1,5-a][1,3,5]triazin-4-yl)cyclopentane-1,3-diamine]
< 20 | NC1CCC(Nc2nc(-c3c(F)cccc3F)nc3c(Cl)cnn23)C1 (centres unmarked) [Example #117, N1-(8-chloro-2-(2,6-difluorophenyl)pyrazolo[1,5-a][1,3,5]triazin-4-yl)cyclopentane-1,3-diamine]
< 20 | N[C@H]1CC[C@H](Nc2nc(-c3c(F)cccc3F)nc3c(C(F)(F)F)cnn23)CC1 [Example #118, (1r,4r)-N1-(2-(2,6-difluorophenyl)-8-(trifluoromethyl)pyrazolo[1,5-a][1,3,5]triazin-4-yl)cyclohexane-1,4-diamine]
< 20 | CN(C)[C@@H]1CC[C@@H](Nc2nc(-c3c(F)cccc3F)nc3c(Cl)cnn23)C1 [Example #119, (1R,3R)-N1-(8-chloro-2-(2,6-difluorophenyl)pyrazolo[1,5-a][1,3,5]triazin-4-yl)-N3,N3-dimethylcyclopentane-1,3-diamine]
< 200 | CN(C)[C@H]1CC[C@H](Nc2nc(-c3c(F)cccc3F)nc3c(C(F)(F)F)cnn23)CC1 [Example #120, (1r,4r)-N1-(2-(2,6-difluorophenyl)-8-(trifluoromethyl)pyrazolo[1,5-a][1,3,5]triazin-4-yl)-N4,N4-dimethylcyclohexane-1,4-diamine]
< 200 | N[C@@H]1CC[C@H](Nc2nc(-c3c(F)cccc3F)nc3c(Cl)cnn23)C1 [Example #125, (1S,3R)-N1-(8-chloro-2-(2,6-difluorophenyl)pyrazolo[1,5-a][1,3,5]triazin-4-yl)cyclopentane-1,3-diamine]
< 20 | OCCN[C@H]1CC[C@H](Nc2nc(-c3c(F)cccc3F)nc3c(Cl)cnn23)CC1 [Example #127, 2-(((1r,4r)-4-((8-chloro-2-(2,6-difluorophenyl)pyrazolo[1,5-a][1,3,5]triazin-4-yl)amino)cyclohexyl)amino)ethan-1-ol]
< 20 | NC1CC(Nc2nc(-c3c(F)cccc3F)nc3c(Cl)cnn23)C1 (centres unmarked) [Example #129, (1r,3r)-N1-(8-chloro-2-(2,6-difluorophenyl)pyrazolo[1,5-a][1,3,5]triazin-4-yl)cyclobutane-1,3-diamine]
< 200 | CN(C)[C@H]1C[C@H](Nc2nc(-c3c(F)cccc3F)nc3c(Cl)cnn23)C1 [Example #130, (1r,3r)-N1-(8-chloro-2-(2,6-difluorophenyl)pyrazolo[1,5-a][1,3,5]triazin-4-yl)-N3,N3-dimethylcyclobutane-1,3-diamine]
< 200 | CN(C)C1CCC(Nc2nc(-c3c(F)cc(F)cc3F)nc3c(Cl)cnn23)CC1 (centres unmarked) [Example #131, (1r,4r)-N1-(8-chloro-2-(2,4,6-trifluorophenyl)pyrazolo[1,5-a][1,3,5]triazin-4-yl)-N4,N4-dimethylcyclohexane-1,4-diamine]
< 200 | Cc1cc(F)c(-c2nc(NC3CCC(N(C)C)CC3)n3ncc(Cl)c3n2)c(F)c1 (centres unmarked) [Example #132, (1r,4r)-N1-(8-chloro-2-(2,6-difluoro-4-methylphenyl)pyrazolo[1,5-a][1,3,5]triazin-4-yl)-N4,N4-dimethylcyclohexane-1,4-diamine]
